The values that follow come from PMC2792720, “Binding of NIR-conPK and NIR-6T to Astrocytomas and Microglial Cells: Evidence for a Protein Related to TSPO” (PLoS ONE, 2009).

Molecules are shown by their SMILES.

The target in the test is T1, TSPO (Mus musculus, UniProt P50637).
T1 construct: mitochondrial-enriched membranes from DBT cells were prepared by lysing cells with ice-cold homogenization buffer; endogenous in cells; host or cells: DBT mouse astrocytoma cells (mitochondrial-enriched membranes / homogenates), untreated or cytokine-treated
The test can be described thus: Filtration radioligand binding assay, [^3H]-PK 11195 binding to DBT cell homogenates. Set-up: Bmax: unit not given here. As for the experimental part:
Enriched membranes were prepared according to [28]. Briefly, mitochondrial-enriched membranes from DBT cells were prepared by lysing cells with ice-cold homogenization buffer (50 mM Tris, 1 mM EDTA and 3 mM MgCl2), followed by dounce homogenization (five gentle strokes). Homogenates were centrifuged (40,000×g, 15 min, 4°C) and cell pellet resuspended in 0.5 ml homogenization buffer, re-homogenized by dounce (five gentle strokes while on ice) and centrifuged again (40,000×g, 15 min, 4°C). Cell pellets were stored at −80°C until further use. Radioligand binding assays were performed in silanized glass test tubes (Kimble Glass Inc.). The following components were added: 50 µl of non-radiolabeled DAA1106 or PK 11195, 50 µl of [N-methyl-^3H]-PK 11195 (PerkinElmer, Boston MA; 250 µCi, 84.8 Ci/mmol) and 100 µl of protein (50 µg, which started the incubation) for a total volume of 200 µl in binding buffer (50 mM Tris, 1 mM EDTA, 3 mM MgCl2 and 0.1% BSA), all of which was placed in a water bath (30°C) with mild agitation for 1 hr. Incubation was stopped by rapid filtration and rinsing with ice-cold binding buffer, using the Brandel harvester (Gaithersburg, MD) and Whatman GFB filter paper (Brandel, Gaithersburg MD). Filters were then transferred to 7 ml glass scintillation vials (VWR, West Chester PA). Five ml of Ecoscint XR scintillation fluid (National Diagnostics, Atlanta, GA) was added, followed by 10 sec vortexing and ∼18 hrs incubation at room temperature prior to determining the radioactivity with a scintillation counter (PerkinElmer, Boston MA).
Data are expressed as n = number of determinations (three per independent experiment). Statistical analysis, Kd and Ki values were calculated using non-linear regression with a one binding site hyperbola, where X is the concentration of the ligand, Y is specific binding and Bmax and Kd are determined using this equation: Y = Bmax X/Kd+X calculated by GraphPad Prism 4.

Broadly, the EC50 is the concentration needed to bring the measured effect to its halfway point. Regarding `CCC(C)N(C)C(=O)c1cc2ccccc2c(-c2ccccc2Cl)n1` (centres unmarked) [PK 11195], the EC50 (DBT cell homogenates, read-out: EC50, competition for [^3H]-PK 11195 binding) came out at 0.093 µM.

Usually Ki stands for the dissociation constant of the complex between target and ligand, obtained from inhibition or displacement. Regarding `COc1ccc(OC)c(CN(C(C)=O)c2cc(F)ccc2Oc2ccccc2)c1` [DAA1106], the Ki (DBT cell homogenates, read-out: Ki, competition for [^3H]-PK 11195 binding) stood at 0.0002 µM.

`[3H]CN(C(=O)c1cc2ccccc2c(-c2ccccc2Cl)n1)C(C)CC` (centres unmarked) [[^3H]-PK 11195, [N-methyl-^3H]-PK 11195]: where the note is “DBT cell homogenates, untreated cells”, the “amount of TSPO detected with [^3H]-PK 11195 (Bmax)” value is 14 pmol of TSPO per gram of protein. Besides, the Bmax by setting is: (homogenates of DBT cells treated with IFNγ (100 Ui/ml), 18–24 hrs) 17.0+/−2.6; (homogenates of DBT cells treated with IFNγ+TNFα, 18–24 hrs) 17.6+/−2.4; (homogenates of DBT cells treated with TGFβ2 (1 ng/ml), 18–24 hrs) 22.1+/−4.7; (homogenates of DBT cells treated with TNFα (5 ng/ml), 18–24 hrs) 17.4+/−2.9; (homogenates of DBT cells, Control (vehicle, 18–24 hrs)) 14.0+/−1.1.
